Results reported in US10662146B2, “Prodrugs of fencamfamine” (Praxis Bioresearch, LLC, priority 2015, dated 2020).
Where “and” joins values, the source holds several entries; their conditions need not be identical. Equal values may be shown once. Read-outs that look alike come from different tables or passages of the source.

Test: Single dose intravenous PK study in male Sprague Dawley rats (plasma by LC-MS/MS)
Assay type: in vivo
Details: for Cmax / AUC / Tmax / AUC(0-inf) / AUC(0-t) / clearance / MRT last / half-life / Vd / C0: male, rat; for Cmax / AUC(0-inf) / AUC(0-t) / clearance / MRT last / half-life / Vd / C0: iv; for AUC: read-out: IV PK Parameters AUC, Prodrug; for C0: read-out: C0 of PRX-P5-006
Protocol: We describe here PK results of prodrugs of PRX-002 (−) or (+) isomers. All doses of prodrugs were administered such that they were equivalent to 5 mg/kg of PRX-002 (−) or (+) for oral studies and 2 mg/kg PRX-002 (−) or (+) for intravenous studies in male Sprague-Dawley (MSD) rats. Higher doses of up to 10 or 15 mg/kg [again equivalent to PRX-002 (−)] were used in some studies (as specified)]. Formulation preparation, dose administration and time of sample collection was as follows.
(§1) Adult male Sprague Dawley Rats aged 8-10 weeks were used for the study. Animals were administered the test item by Intravenous bolus route with a dose of 2 mg/kg body weight at dose volume of 5.0 mL/kg body weight. Under mild isoflurane anesthesia, blood specimens were collected by retro-orbital puncture method using capillary tubes into pre-labeled tubes containing anticoagulant (K2EDTA-2 mg/mL blood) during the next 24 hours of post dose as mentioned in below table. For blood sampling at multiple time points, right and left eyes were used alternatively for blood collection. Collected blood specimens were centrifuged at 4000 rpm, 4° C. for 10 minutes and plasma were separated and stored at −80° C. until analysis.
Blood was collected as outlined in Table 39.2 (IV).
Test item PRX-P4-003 was weighed and transferred to a graduated tube. Then 600 μL of PEG 400 (v/v) was added and vortex mixed thoroughly until the test item was completely dissolved. Then 1.800 mL of Hydroxypropyl-β-cyclodextrin (HPβCD, 50% w/v) was added and vortex mixed thoroughly. The final volume was then made up to 3.600 mL with sterile water for injection (SWFI, v/v) with final formulation strength of 5.16 mgA/mL. […] This formulation was freshly prepared before the administration to animals.
as §1, with “administered with a PRX-P4-003” for “administered the test item”, “of 10” for “of 2”, “of 5” for “of 5.0”
Test item PRX-P5-006 was weighed and transferred to a graduated tube. Then 500 μL of DMSO (v/v) was added vortex mixed thoroughly until the test item was completely dissolved. Then 4000 μL of Hydroxypropyl-β-cyclodextrin (HPβCD, 50% w/v) was added and vortex mixed thoroughly. Then 2500 μL of PEG 400 (v/v) was added and vortex mixed thoroughly. The final volume was then made up to 10000 μL with sterile water for injection (SWFI, v/v) with final formulation strength of 3.97 mg/mL. […] This formulation was freshly prepared before the administration to animals.
as §1, with “administered with a PRX-P5-006” for “administered the test item”, “of 15” for “of 2”, “of 10” for “of 5.0”
The plasma concentrations of fencamfamine were measured by LC-MS/MS over time. […] The release of fencamfamine from the prodrugs varied depending on the chain length of the fatty acid linkers attached to fencamfamine. […]

[1] = Sprague Dawley, plasma, 2 mg/kg, IV 2 mg/kg [equivalent to PRX-002 (−)], analyte: prodrug in plasma, mean, read-out: IV PK Parameters Cmax, Prodrug
[2] = Sprague Dawley, IV 2 mg/kg [equivalent to PRX-002 (−)], analyte: prodrug in plasma, mean
[3] = Sprague Dawley, IV 2 mg/kg [equivalent to PRX-002 (−)], analyte: prodrug in plasma, mean, read-out: IV PK Parameters Tmax, Prodrug
[4] = PRX-P5-006 IV 2 mg/kg b.w., individual animals, 2 mg/kg
[5] = PRX-P5-006 IV 2 mg/kg, mean, 2 mg/kg

In the case of CCCCCCCCCCCCCCCCCC(=O)OCOC(=O)N(CC)C1C2CCC(C2)C1c1ccccc1 (single isomer, unassigned) [PRX-P4-003, N-(Octadecanoyloxymethoxycarbonyl)-(−)-N-ethyl-3-phenylbicyclo[2.2.1]heptan-2-amine], the “Plasma concentration of PRX-P4-003” value (PRX-P4-003 IV 2 mg/kg b.w., 0.08 h, mean) is reported as 171.96, the “Plasma concentration of PRX-P4-003” value (PRX-P4-003 IV 2 mg/kg b.w., 0.25 h, mean) is reported as 47.94 and the “Plasma concentration of PRX-P4-003” value (PRX-P4-003 IV 2 mg/kg b.w., 0.50 h, mean) is reported as 26.73. For the same molecule, the “Plasma concentration of PRX-P4-003” value (PRX-P4-003 IV 2 mg/kg b.w., 1.00 h, mean) was 20.03, the “Plasma concentration of PRX-P4-003” value (PRX-P4-003 IV 2 mg/kg b.w., 2.00 h, mean) was 18.29 and the “Plasma concentration of PRX-P4-003” value (PRX-P4-003 IV 2 mg/kg b.w., 4.00 h, mean) was 14.23. For the same molecule, the “Plasma concentration of PRX-P4-003” value (PRX-P4-003 IV 2 mg/kg b.w., 6.00 h, mean) was 10.72, the “Plasma concentration of PRX-P4-003” value (PRX-P4-003 IV 2 mg/kg b.w., 24.00 h, mean) was 0.00 and the “AUC% extrap of PRX-P4-003” value (PRX-P4-003 IV 2 mg/kg, mean) was 32.475 ± 83.3890%. For the same molecule, the “Plasma concentration of PRX-P4-003” value (PRX-P4-003 IV 10 mg/kg b.w., 0.08 h, mean) was 199.64, the “Plasma concentration of PRX-P4-003” value (PRX-P4-003 IV 10 mg/kg b.w., 0.25 h, mean) was 27.98 and the “Plasma concentration of PRX-P4-003” value (PRX-P4-003 IV 10 mg/kg b.w., 0.50 h, mean) was 8.96. For the same molecule, the “Plasma concentration of PRX-P4-003” value (PRX-P4-003 IV 10 mg/kg b.w., 1.00 h, mean) was 0.00, the “Plasma concentration of PRX-P4-003” value (PRX-P4-003 IV 10 mg/kg b.w., 2.00 h, mean) was 0.00 and the “Plasma concentration of PRX-P4-003” value (PRX-P4-003 IV 10 mg/kg b.w., 4.00 h, mean) was 0.00. For the same molecule, the “Plasma concentration of PRX-P4-003” value (PRX-P4-003 IV 10 mg/kg b.w., 6.00 h, mean) was 0.00, the “Plasma concentration of PRX-P4-003” value (PRX-P4-003 IV 10 mg/kg b.w., 24.00 h, mean) was 0.00 and the “Conversion of pro-drug form to active form PRX-002(−) isomer in plasma” value (PRX-P4-003 IV administration (FIG. 2)) was “minimal amounts”. For the same molecule, the “Amount of parent PRX-002 (−) generated” value (PRX-P4-003 IV, even at higher dose of 10 mg/kg (FIG. 3)) was “very limited amount”, the Cmax [1] was 172 ± 62.6 ng/mL and the AUC [2] was 133 ± 32.5 ng·h/mL. The Tmax [3] was 4.8 min, the AUC(0-inf) (Sprague-Dawley, plasma, 2 mg/kg, PRX-P4-003 IV 2 mg/kg, mean, read-out: AUCinf of PRX-P4-003) was 216 ± 83.4 ng·h/mL and the AUC(0-t) (Sprague-Dawley, plasma, 2 mg/kg, PRX-P4-003 IV 2 mg/kg, mean, read-out: AUClast of PRX-P4-003) was 133 ± 32.5 ng·h/mL. For the same molecule, the clearance (Sprague-Dawley, plasma, 2 mg/kg, PRX-P4-003 IV 2 mg/kg, mean, read-out: CL of PRX-P4-003) was 172 ± 69.3 mL/min/kg, the Cmax (Sprague-Dawley, plasma, 2 mg/kg, PRX-P4-003 IV 2 mg/kg, mean, read-out: Cmax of PRX-P4-003) was 172 ± 62.6 ng/mL and the MRT last (Sprague-Dawley, plasma, 2 mg/kg, PRX-P4-003 IV 2 mg/kg, mean, read-out: MRTlast of PRX-P4-003) was 1.84 ± 0.713 h. It also gave a half-life (Sprague-Dawley, plasma, 2 mg/kg, PRX-P4-003 IV 2 mg/kg, mean, read-out: T1/2 of PRX-P4-003 (converted)) of 3.35 ± 2.18 h, a Vd (Sprague-Dawley, plasma, 2 mg/kg, PRX-P4-003 IV 2 mg/kg, mean, read-out: Vss of PRX-P4-003) of 42 ± 19.9 L/kg and a Tmax (Sprague-Dawley, plasma, PRX-P4-003 IV 2 mg/kg, mean, read-out: Tmax of PRX-P4-003) of 4.8 min.
In the case of CCCCCCCCCCCCCCCCCC(=O)OC(C)OC(=O)N(CC)C1C2CCC(C2)C1c1ccccc1 (single isomer, unassigned) [PRX-P5-006, N-(1-Octadecanoyloxyethoxycarbonyl)-(−)-N-ethyl-3-phenylbicyclo[2.2.1]heptan-2-amine], the “AUC% extrap of PRX-P5-006” value [4] is reported as 5.16% and 3.49% and 11.16%, the “AUCinf of PRX-P5-006” value [4] is reported as 3977.39 ng·h/mL and 4119.23 ng·h/mL and the “AUClast of PRX-P5-006” value [4] is reported as 3838.58 ng·h/mL and 3659.58 ng·h/mL. For the same molecule, the “C0 of PRX-P5-006” value [4] was 32467.12 ng/mL and 21202.31 ng/mL, the “CL of PRX-P5-006” value [4] was 8.38 mL/min/kg and 8.09 mL/min/kg and the “Cmax of PRX-P5-006” value [4] was 8662.3 ng/mL and 7404.71 ng/mL. For the same molecule, the “MRTlast of PRX-P5-006” value [4] was 2.7 h and 0.93 h and 3.31 h, the “T1/2 of PRX-P5-006” value [4] was 7.54 h and 2.06 h and 9.32 h and the “Vss of PRX-P5-006” value [4] was 1.56 L/kg and 0.61 L/kg and 3.46 L/kg. For the same molecule, the “AUC% extrap of PRX-P5-006” value [5] was 6.602 ± 4.0330% and 6.602%, the “T1/2 of PRX-P5-006” value [5] was 6.304 h and the “Level of intact PRX-P5-006 in plasma, IV versus oral” value (PRX-P5-006 administered IV (FIGS. 5A, 5B)) was “Much higher level of intact PRX-P5-006”. The Cmax [1] was 707 ± 500 ng/mL, the AUC(0-inf) (Sprague Dawley, plasma, 2 mg/kg, PRX-P5-006 IV 2 mg/kg, mean, read-out: AUCinf of PRX-P5-006) was 4560 ± 894 ng·h/mL and the AUC(0-t) (Sprague Dawley, plasma, 2 mg/kg, PRX-P5-006 IV 2 mg/kg, mean, read-out: AUClast of PRX-P5-006) was 4270 ± 902 ng·h/mL. It also gave a clearance (Sprague Dawley, plasma, 2 mg/kg, PRX-P5-006 IV 2 mg/kg, mean, read-out: CL of PRX-P5-006) of 7.48 ± 1.32 mL/min/kg, a Vd (Sprague Dawley, plasma, 2 mg/kg, PRX-P5-006 IV 2 mg/kg, mean, read-out: Vss of PRX-P5-006) of 1.88 ± 1.45 L/kg and a Cmax (Sprague Dawley, plasma, 15 mg/kg, IV 15 mg/kg (footnote *), analyte: prodrug in plasma, mean, read-out: IV PK Parameters Cmax, Prodrug) of 16400 ± 7100 ng/mL. The AUC [2] was 410 ± 301 ng·h/mL, the Tmax [3] was 4.8 min and the AUC (Sprague Dawley, IV 15 mg/kg (footnote *), analyte: prodrug in plasma, mean) was 8060 ± 1760 ng·h/mL. The Tmax (Sprague Dawley, IV 15 mg/kg (footnote *), analyte: prodrug in plasma, mean, read-out: IV PK Parameters Tmax, Prodrug) was 4.8 min, the AUC(0-inf) (Sprague-Dawley, plasma, 2 mg/kg, PRX-P5-006 IV 2 mg/kg b.w., individual animals, read-out: AUCinf of PRX-P5-006) was 5590 ng·h/mL and the AUC(0-t) (Sprague-Dawley, plasma, 2 mg/kg, PRX-P5-006 IV 2 mg/kg b.w., individual animals, read-out: AUClast of PRX-P5-006) was 5300 ng·h/mL. For the same molecule, the C0 (Sprague-Dawley, plasma, 2 mg/kg, PRX-P5-006 IV 2 mg/kg b.w., individual animals) was 36200 ng/mL, the clearance (Sprague-Dawley, plasma, 2 mg/kg, PRX-P5-006 IV 2 mg/kg b.w., individual animals, read-out: CL of PRX-P5-006) was 5.96 mL/min/kg and the Cmax (Sprague-Dawley, plasma, 2 mg/kg, PRX-P5-006 IV 2 mg/kg b.w., individual animals, read-out: Cmax of PRX-P5-006) was 11200 ng/mL. For the same molecule, the C0 (Sprague-Dawley, plasma, 2 mg/kg, PRX-P5-006 IV 2 mg/kg, mean) was 30000 ng/mL, the Cmax (Sprague-Dawley, plasma, 2 mg/kg, PRX-P5-006 IV 2 mg/kg, mean, read-out: Cmax of PRX-P5-006) was 9100 ± 1950 ng/mL and the MRT last (Sprague-Dawley, plasma, 2 mg/kg, PRX-P5-006 IV 2 mg/kg, mean, read-out: MRTlast of PRX-P5-006) was 2.31 ± 1.24 h. The half-life (Sprague-Dawley, plasma, 2 mg/kg, PRX-P5-006 IV 2 mg/kg, mean, read-out: T1/2 of PRX-P5-006 (converted)) was 6.3 ± 3.79 h and the Tmax (Sprague-Dawley, plasma, PRX-P5-006 IV 2 mg/kg, mean, read-out: Tmax of PRX-P5-006) was 4.8 min.
